Reference: ChEMBL document CHEMBL5620389, “Development of diphenylmethylpiperazine hybrids of chloroquinoline and triazolopyrimidine using Petasis reaction as new cysteine proteases inhibitors for malaria therapeutics” (Eur J Med Chem, 2023)
Calls of active or inactive are those of the source.

Test system: Plasmodium falciparum
Experiment: Antiplasmodial activity against synchronized Plasmodium falciparum 3D7 assessed as arrest in parasite development at trophozoite stage at 3 times IC50 after 24 to 48 hrs by Giesma-staining based light microscopic analysis
Format: functional, organism-based
Settings: time 24-48 hrs

SMILES | Activity
Oc1ccccc1C(c1ccc(F)c(Cl)c1)N1CCN(c2ccnc3cc(Cl)ccc23)CC1 (configuration not stated) | Active
Cc1ccc(C(c2ccccc2O)N2CCN(c3ccnc4cc(Cl)ccc34)CC2)cc1 (configuration not stated) | Active
COc1cccc(C(c2ccc(C)cc2)N2CCN(c3ccnc4cc(Cl)ccc34)CC2)c1O (configuration not stated) | Active
COc1cccc(C(c2ccc(F)c(F)c2)N2CCN(c3ccnc4cc(Cl)ccc34)CC2)c1O (configuration not stated) | Active
Oc1ccccc1C(c1ccc(F)c(F)c1)N1CCN(c2ccnc3cc(Cl)ccc23)CC1 (configuration not stated) | Active
COc1cccc(C(c2ccc(Cl)c(Cl)c2)N2CCN(c3ccnc4cc(Cl)ccc34)CC2)c1O (configuration not stated) | Active
COc1cccc(C(c2ccc(C(F)(F)F)cc2)N2CCN(c3ccnc4cc(Cl)ccc34)CC2)c1O (configuration not stated) | Active
Oc1ccccc1C(c1ccc(OC(F)(F)F)cc1)N1CCN(c2ccnc3cc(Cl)ccc23)CC1 (configuration not stated) | Active

Biological target: T1, Falcipain 2 (Plasmodium falciparum, UniProt Q9N6S8)
T1 sequence (Q9N6S8 whole entry): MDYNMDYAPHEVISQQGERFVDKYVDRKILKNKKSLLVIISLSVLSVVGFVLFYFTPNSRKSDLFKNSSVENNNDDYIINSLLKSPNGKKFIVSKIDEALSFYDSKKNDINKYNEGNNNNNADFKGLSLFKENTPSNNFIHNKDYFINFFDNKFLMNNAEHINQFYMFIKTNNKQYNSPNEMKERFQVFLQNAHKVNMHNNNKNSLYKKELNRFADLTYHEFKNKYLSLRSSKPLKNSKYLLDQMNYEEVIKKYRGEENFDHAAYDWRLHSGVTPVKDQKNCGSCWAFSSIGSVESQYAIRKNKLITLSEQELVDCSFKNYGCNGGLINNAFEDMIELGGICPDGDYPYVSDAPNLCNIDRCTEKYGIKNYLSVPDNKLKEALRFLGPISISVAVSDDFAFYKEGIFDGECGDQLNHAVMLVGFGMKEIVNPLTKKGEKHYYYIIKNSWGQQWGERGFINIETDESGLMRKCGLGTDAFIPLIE
Experiment: Inhibition of Plasmodium falciparum FP2 using Z-Leu-Arg-AMC as substrate preincubated for 30 mins followed by substrate addition and measured for 30 mins by spectrofluorometer analysis
Settings: not given

SMILES | IC50 [µM]
Oc1ccccc1C(c1ccc(F)c(Cl)c1)N1CCN(c2ccnc3cc(Cl)ccc23)CC1 (configuration not stated) | 8.7
Cc1ccc(C(c2ccccc2O)N2CCN(c3ccnc4cc(Cl)ccc34)CC2)cc1 (configuration not stated) | 6.1
COc1cccc(C(c2ccc(F)c(F)c2)N2CCN(c3ccnc4cc(Cl)ccc34)CC2)c1O (configuration not stated) | 10.4
Oc1ccccc1C(c1ccc(F)c(F)c1)N1CCN(c2ccnc3cc(Cl)ccc23)CC1 (configuration not stated) | 3.9
COc1cccc(C(c2ccc(Cl)c(Cl)c2)N2CCN(c3ccnc4cc(Cl)ccc34)CC2)c1O (configuration not stated) | 4.6
COc1ccc(C(c2cccc(OC)c2O)N2CCN(c3ccnc4cc(Cl)ccc34)CC2)cc1 (configuration not stated) | 7.1
COc1cccc(C(c2ccc(C(F)(F)F)cc2)N2CCN(c3ccnc4cc(Cl)ccc34)CC2)c1O (configuration not stated) | 5.4
Oc1ccccc1C(c1ccc(OC(F)(F)F)cc1)N1CCN(c2ccnc3cc(Cl)ccc23)CC1 (configuration not stated) | 4.8

Test system: not listed separately
Experiment: Cytotoxicity against African green monkey Vero cells at 1000 uM
Format: toxicity, cell-based
Settings: chlorocebus sabaeus

SMILES | Activity
Oc1ccccc1C(c1ccc(F)c(Cl)c1)N1CCN(c2ccnc3cc(Cl)ccc23)CC1 (configuration not stated) | Non-Toxic
Cc1ccc(C(c2ccccc2O)N2CCN(c3ccnc4cc(Cl)ccc34)CC2)cc1 (configuration not stated) | Non-Toxic
COc1cccc(C(c2ccc(F)c(F)c2)N2CCN(c3ccnc4cc(Cl)ccc34)CC2)c1O (configuration not stated) | Non-Toxic
Oc1ccccc1C(c1ccc(F)c(F)c1)N1CCN(c2ccnc3cc(Cl)ccc23)CC1 (configuration not stated) | Non-Toxic
COc1cccc(C(c2ccc(Cl)c(Cl)c2)N2CCN(c3ccnc4cc(Cl)ccc34)CC2)c1O (configuration not stated) | Non-Toxic
COc1ccc(C(c2cccc(OC)c2O)N2CCN(c3ccnc4cc(Cl)ccc34)CC2)cc1 (configuration not stated) | Non-Toxic
COc1cccc(C(c2ccc(C(F)(F)F)cc2)N2CCN(c3ccnc4cc(Cl)ccc34)CC2)c1O (configuration not stated) | Non-Toxic
Oc1ccccc1C(c1ccc(OC(F)(F)F)cc1)N1CCN(c2ccnc3cc(Cl)ccc23)CC1 (configuration not stated) | Non-Toxic

Test system: Plasmodium falciparum
Experiment: Antimalarial activity against chloroquine-sensitive Plasmodium falciparum K1 incubated for 72 hrs by MSF assay
Format: functional, organism-based
Settings: K1, 72 h

SMILES | IC50 [µM]
CCN1CCN(CC(CC(C)C)Nc2ccnc3cc(Cl)ccc23)CC1 (configuration not stated) | 0.0978

Biological target: T2, Falcipain-3 (Plasmodium falciparum 3D7, UniProt Q8IIL0)
T2 sequence (Q8IIL0 whole entry): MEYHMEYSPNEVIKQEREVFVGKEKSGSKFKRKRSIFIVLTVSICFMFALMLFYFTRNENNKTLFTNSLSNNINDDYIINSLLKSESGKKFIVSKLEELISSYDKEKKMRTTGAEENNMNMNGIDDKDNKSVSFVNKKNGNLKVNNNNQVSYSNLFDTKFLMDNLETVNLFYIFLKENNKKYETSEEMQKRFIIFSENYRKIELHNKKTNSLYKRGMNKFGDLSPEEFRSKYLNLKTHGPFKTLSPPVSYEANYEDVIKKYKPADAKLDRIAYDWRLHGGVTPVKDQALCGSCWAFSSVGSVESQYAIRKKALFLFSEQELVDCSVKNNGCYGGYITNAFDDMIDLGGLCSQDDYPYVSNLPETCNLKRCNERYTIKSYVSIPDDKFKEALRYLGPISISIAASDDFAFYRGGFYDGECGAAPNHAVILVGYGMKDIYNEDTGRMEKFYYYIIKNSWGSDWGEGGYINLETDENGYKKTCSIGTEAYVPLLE
Experiment: Inhibition of Plasmodium falciparum FP3 using Z-Leu-Arg-AMC as substrate preincubated for 30 mins followed by substrate addition and measured for 30 mins by spectrofluorometer analysis
Settings: not given

SMILES | IC50 [µM]
Oc1ccccc1C(c1ccc(F)c(Cl)c1)N1CCN(c2ccnc3cc(Cl)ccc23)CC1 (configuration not stated) | 10.1
Cc1ccc(C(c2ccccc2O)N2CCN(c3ccnc4cc(Cl)ccc34)CC2)cc1 (configuration not stated) | 6.7
COc1cccc(C(c2ccc(F)c(F)c2)N2CCN(c3ccnc4cc(Cl)ccc34)CC2)c1O (configuration not stated) | 10.8
Oc1ccccc1C(c1ccc(F)c(F)c1)N1CCN(c2ccnc3cc(Cl)ccc23)CC1 (configuration not stated) | 4.9
COc1cccc(C(c2ccc(Cl)c(Cl)c2)N2CCN(c3ccnc4cc(Cl)ccc34)CC2)c1O (configuration not stated) | 5.9
COc1ccc(C(c2cccc(OC)c2O)N2CCN(c3ccnc4cc(Cl)ccc34)CC2)cc1 (configuration not stated) | 7.8
COc1cccc(C(c2ccc(C(F)(F)F)cc2)N2CCN(c3ccnc4cc(Cl)ccc34)CC2)c1O (configuration not stated) | 6.2
Oc1ccccc1C(c1ccc(OC(F)(F)F)cc1)N1CCN(c2ccnc3cc(Cl)ccc23)CC1 (configuration not stated) | 4.7

Test system: Plasmodium falciparum
Experiment: Antimalarial activity against Plasmodium falciparum 3D7
Format: functional, organism-based
Settings: not given

SMILES | IC50 [µM]
CC(C)(C)NCc1ccc(Nc2ccnc3cc(Cl)ccc23)cc1O [GSK-369796] | 0.011

Test system: Plasmodium yoelii
Experiment: Antimalarial activity against Plasmodium yoelii N67 infected in Swiss mouse assessed as parasitemia suppression at 12.5 mg/kg/day, po measured on day 4
Format: functional
Settings: time 4 day

SMILES | Activity [%]
CCN1CCN(CC(CC(C)C)Nc2ccnc3cc(Cl)ccc23)CC1 (configuration not stated) | 100

Test system: Erythrocyte
Experiment: Hemolytic activity in human RBC at 100 uM incubated for 2 hrs by microplate reader analysis
Format: toxicity, cell-based
Settings: not given

SMILES | Activity
Oc1ccccc1C(c1ccc(F)c(Cl)c1)N1CCN(c2ccnc3cc(Cl)ccc23)CC1 (configuration not stated) | Toxic
Cc1ccc(C(c2ccccc2O)N2CCN(c3ccnc4cc(Cl)ccc34)CC2)cc1 (configuration not stated) | Toxic
COc1cccc(C(c2ccc(C)cc2)N2CCN(c3ccnc4cc(Cl)ccc34)CC2)c1O (configuration not stated) | Toxic
COc1cccc(C(c2ccc(F)c(F)c2)N2CCN(c3ccnc4cc(Cl)ccc34)CC2)c1O (configuration not stated) | Toxic
Oc1ccccc1C(c1ccc(F)c(F)c1)N1CCN(c2ccnc3cc(Cl)ccc23)CC1 (configuration not stated) | Toxic
COc1cccc(C(c2ccc(Cl)c(Cl)c2)N2CCN(c3ccnc4cc(Cl)ccc34)CC2)c1O (configuration not stated) | Toxic
COc1ccc(C(c2cccc(OC)c2O)N2CCN(c3ccnc4cc(Cl)ccc34)CC2)cc1 (configuration not stated) | Toxic
COc1cccc(C(c2ccc(C(F)(F)F)cc2)N2CCN(c3ccnc4cc(Cl)ccc34)CC2)c1O (configuration not stated) | Toxic
Oc1ccccc1C(c1ccc(OC(F)(F)F)cc1)N1CCN(c2ccnc3cc(Cl)ccc23)CC1 (configuration not stated) | Toxic

Test system: Plasmodium falciparum
Experiment: Antimalarial activity against chloroquine-sensitive Plasmodium falciparum 3D7 incubated for 72 hrs by MSF assay
Format: functional, organism-based
Settings: 3D7, 72 h

SMILES | IC50 [µM]
CCN1CCN(CC(CC(C)C)Nc2ccnc3cc(Cl)ccc23)CC1 (configuration not stated) | 0.057

Test system: Plasmodium yoelii
Experiment: Antimalarial activity against Plasmodium yoelii N67 infected in Swiss mouse assessed as curative rate at 12.5 mg/kg/day, po measured on day 28
Format: functional
Settings: time 28 day

SMILES | Activity [%]
CCN1CCN(CC(CC(C)C)Nc2ccnc3cc(Cl)ccc23)CC1 (configuration not stated) | 100

Test system: Plasmodium falciparum
Experiment: Antimalarial activity against Plasmodium falciparum K1
Format: functional, organism-based
Settings: not given

SMILES | IC50 [µM]
CC(C)(C)NCc1ccc(Nc2ccnc3cc(Cl)ccc23)cc1O [GSK-369796] | 0.013

Test system: Plasmodium falciparum
Experiment: Antimalarial activity against chloroquine-resistant Plasmodium falciparum W2 infected in RBC incubated for 50 hrs by SYBR green I staining based microplate reader assay
Format: functional, organism-based
Settings: W2, Erythrocyte

SMILES | IC50 [µM]
Oc1ccccc1C(c1ccc(F)c(Cl)c1)N1CCN(c2ccnc3cc(Cl)ccc23)CC1 (configuration not stated) | 0.46
Cc1ccc(C(c2ccccc2O)N2CCN(c3ccnc4cc(Cl)ccc34)CC2)cc1 (configuration not stated) | 1.28
COc1cccc(C(c2ccc(F)c(F)c2)N2CCN(c3ccnc4cc(Cl)ccc34)CC2)c1O (configuration not stated) | 1.4
Oc1ccccc1C(c1ccc(F)c(F)c1)N1CCN(c2ccnc3cc(Cl)ccc23)CC1 (configuration not stated) | 1.05
COc1cccc(C(c2ccc(Cl)c(Cl)c2)N2CCN(c3ccnc4cc(Cl)ccc34)CC2)c1O (configuration not stated) | 0.66
COc1ccc(C(c2cccc(OC)c2O)N2CCN(c3ccnc4cc(Cl)ccc34)CC2)cc1 (configuration not stated) | 2.6
COc1cccc(C(c2ccc(C(F)(F)F)cc2)N2CCN(c3ccnc4cc(Cl)ccc34)CC2)c1O (configuration not stated) | 3.29
Oc1ccccc1C(c1ccc(OC(F)(F)F)cc1)N1CCN(c2ccnc3cc(Cl)ccc23)CC1 (configuration not stated) | 1.24

Test system: not listed separately
Experiment: Cytotoxicity against human […] cells incubated for 24 hrs by MTT assay
Format: toxicity, cell-based
Settings: not given

SMILES | IC50 at 24 h [µM]
Oc1ccccc1C(c1ccc(F)c(Cl)c1)N1CCN(c2ccnc3cc(Cl)ccc23)CC1 (configuration not stated) | 139
Cc1ccc(C(c2ccccc2O)N2CCN(c3ccnc4cc(Cl)ccc34)CC2)cc1 (configuration not stated) | 134
COc1cccc(C(c2ccc(F)c(F)c2)N2CCN(c3ccnc4cc(Cl)ccc34)CC2)c1O (configuration not stated) | 17.9
Oc1ccccc1C(c1ccc(F)c(F)c1)N1CCN(c2ccnc3cc(Cl)ccc23)CC1 (configuration not stated) | 188
COc1cccc(C(c2ccc(Cl)c(Cl)c2)N2CCN(c3ccnc4cc(Cl)ccc34)CC2)c1O (configuration not stated) | 172
COc1ccc(C(c2cccc(OC)c2O)N2CCN(c3ccnc4cc(Cl)ccc34)CC2)cc1 (configuration not stated) | 214
COc1cccc(C(c2ccc(C(F)(F)F)cc2)N2CCN(c3ccnc4cc(Cl)ccc34)CC2)c1O (configuration not stated) | 32.9
Oc1ccccc1C(c1ccc(OC(F)(F)F)cc1)N1CCN(c2ccnc3cc(Cl)ccc23)CC1 (configuration not stated) | 104

Test system: Plasmodium falciparum
Experiment: Antimalarial activity against chloroquine-sensitive Plasmodium falciparum 3D7 infected in RBC incubated for 50 hrs by SYBR green I staining based microplate reader assay
Format: functional, organism-based
Settings: 3D7, Erythrocyte

SMILES | IC50 [µM]
Oc1ccccc1C(c1ccc(F)c(Cl)c1)N1CCN(c2ccnc3cc(Cl)ccc23)CC1 (configuration not stated) | 1.2
Cc1ccc(C(c2ccccc2O)N2CCN(c3ccnc4cc(Cl)ccc34)CC2)cc1 (configuration not stated) | 1.06
COc1cccc(C(c2ccc(C)cc2)N2CCN(c3ccnc4cc(Cl)ccc34)CC2)c1O (configuration not stated) | 1.65
COc1cccc(C(c2ccc(F)c(F)c2)N2CCN(c3ccnc4cc(Cl)ccc34)CC2)c1O (configuration not stated) | 1.31
Oc1ccccc1C(c1ccc(F)c(F)c1)N1CCN(c2ccnc3cc(Cl)ccc23)CC1 (configuration not stated) | 0.74
COc1cccc(C(c2ccc(Cl)c(Cl)c2)N2CCN(c3ccnc4cc(Cl)ccc34)CC2)c1O (configuration not stated) | 1.06
COc1ccc(C(c2cccc(OC)c2O)N2CCN(c3ccnc4cc(Cl)ccc34)CC2)cc1 (configuration not stated) | 1.09
COc1cccc(C(c2ccc(C(F)(F)F)cc2)N2CCN(c3ccnc4cc(Cl)ccc34)CC2)c1O (configuration not stated) | 0.53
Oc1ccccc1C(c1ccc(OC(F)(F)F)cc1)N1CCN(c2ccnc3cc(Cl)ccc23)CC1 (configuration not stated) | 0.74
